# Legend:
# INSR = molecular target: T1, INSR (Homo sapiens, UniProt P06213); assay: SAFETYscan Binding; design: dose or concentration left out as unconfirmed; conditions: read-out: Max Response (%) (Antagonist)
# T1 construct: purchased Eurofins DiscoverX (KINOMEscan; SAFETYscan E/IC50 ELECT)
# Protocol: (§1) The specificity of EDG-5506 for fast skeletal myosin over other, unrelated proteins was confirmed using two off-target binding and activity screens. […] A second off-target panel (SAFETYscan E/IC50 ELECT, Eurofins DiscoverX) tested in vitro enzyme activity against 78 proteins, including GPCR, ion channel, kinases, nuclear hormone receptors, and transporters. In all assays, the IC50 of EDG-5506 was more than 10 μM (Supplemental Data File 1).
# LCK = molecular target: T2, LCK (Homo sapiens, UniProt P06239); assay: SAFETYscan Binding; design: dose or concentration left out as unconfirmed; conditions: read-out: Max Response (%) (Antagonist)
# T2 construct: purchased Eurofins DiscoverX (KINOMEscan; SAFETYscan E/IC50 ELECT)
# T2 sequence (P06239 whole entry): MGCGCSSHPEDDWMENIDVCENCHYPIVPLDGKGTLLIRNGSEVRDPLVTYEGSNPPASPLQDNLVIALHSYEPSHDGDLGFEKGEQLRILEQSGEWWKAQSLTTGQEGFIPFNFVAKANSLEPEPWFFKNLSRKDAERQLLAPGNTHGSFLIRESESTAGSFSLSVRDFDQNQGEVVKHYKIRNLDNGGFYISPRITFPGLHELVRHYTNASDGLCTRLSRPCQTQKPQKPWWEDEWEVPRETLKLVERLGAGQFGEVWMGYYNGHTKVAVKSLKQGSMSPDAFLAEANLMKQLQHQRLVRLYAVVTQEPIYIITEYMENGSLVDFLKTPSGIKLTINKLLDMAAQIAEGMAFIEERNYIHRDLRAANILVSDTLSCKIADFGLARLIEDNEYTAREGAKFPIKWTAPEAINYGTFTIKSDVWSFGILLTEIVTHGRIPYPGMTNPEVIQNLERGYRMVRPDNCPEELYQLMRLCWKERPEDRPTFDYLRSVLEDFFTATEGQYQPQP
# Protocol: as §1
# ROCK1 = molecular target: T3, ROCK1 (Homo sapiens, UniProt Q13464); assay: SAFETYscan Binding; design: dose or concentration left out as unconfirmed; conditions: read-out: Max Response (%) (Antagonist)
# T3 construct: purchased Eurofins DiscoverX (KINOMEscan; SAFETYscan E/IC50 ELECT)
# T3 sequence (Q13464 whole entry): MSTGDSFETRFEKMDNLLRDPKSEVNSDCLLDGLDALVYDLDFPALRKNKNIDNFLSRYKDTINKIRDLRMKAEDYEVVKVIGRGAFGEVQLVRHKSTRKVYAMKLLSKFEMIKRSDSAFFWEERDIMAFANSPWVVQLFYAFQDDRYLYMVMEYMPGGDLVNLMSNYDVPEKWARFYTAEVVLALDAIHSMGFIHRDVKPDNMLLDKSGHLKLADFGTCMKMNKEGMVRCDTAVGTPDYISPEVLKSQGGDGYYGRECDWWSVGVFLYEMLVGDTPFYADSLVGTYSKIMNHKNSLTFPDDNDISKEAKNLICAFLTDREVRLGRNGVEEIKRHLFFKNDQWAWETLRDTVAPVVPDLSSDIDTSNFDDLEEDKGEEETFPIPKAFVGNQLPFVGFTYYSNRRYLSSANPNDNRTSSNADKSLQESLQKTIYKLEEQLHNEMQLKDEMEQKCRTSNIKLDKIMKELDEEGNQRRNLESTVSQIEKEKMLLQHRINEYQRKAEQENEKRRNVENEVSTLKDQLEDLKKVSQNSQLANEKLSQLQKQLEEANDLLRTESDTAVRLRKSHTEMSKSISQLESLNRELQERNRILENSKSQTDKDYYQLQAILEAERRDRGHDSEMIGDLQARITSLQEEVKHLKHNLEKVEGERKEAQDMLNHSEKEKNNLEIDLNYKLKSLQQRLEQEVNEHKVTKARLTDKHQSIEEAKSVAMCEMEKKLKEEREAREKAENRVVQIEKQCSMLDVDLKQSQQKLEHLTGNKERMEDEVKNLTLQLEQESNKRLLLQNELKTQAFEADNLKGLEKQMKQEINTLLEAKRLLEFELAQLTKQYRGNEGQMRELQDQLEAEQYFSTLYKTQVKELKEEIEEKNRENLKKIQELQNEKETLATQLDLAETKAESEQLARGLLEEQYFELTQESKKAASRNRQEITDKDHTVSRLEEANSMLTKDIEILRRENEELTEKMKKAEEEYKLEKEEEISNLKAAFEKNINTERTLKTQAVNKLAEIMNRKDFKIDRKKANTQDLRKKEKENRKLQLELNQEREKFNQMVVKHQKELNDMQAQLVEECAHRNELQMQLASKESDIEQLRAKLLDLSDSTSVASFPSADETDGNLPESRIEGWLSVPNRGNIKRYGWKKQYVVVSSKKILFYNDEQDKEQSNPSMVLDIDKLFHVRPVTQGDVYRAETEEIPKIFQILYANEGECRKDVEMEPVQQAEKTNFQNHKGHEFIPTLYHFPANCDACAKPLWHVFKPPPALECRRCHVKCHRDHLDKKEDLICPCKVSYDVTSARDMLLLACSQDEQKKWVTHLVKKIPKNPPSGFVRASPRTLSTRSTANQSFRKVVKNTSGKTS
# Protocol: as §1
# VEGFR2 = molecular target: T4, VEGFR2 (Homo sapiens, UniProt P35968); assay: SAFETYscan Binding; design: dose or concentration left out as unconfirmed; conditions: read-out: Max Response (%) (Antagonist)
# T4 construct: purchased Eurofins DiscoverX (KINOMEscan; SAFETYscan E/IC50 ELECT)
# Protocol: as §1
# PAK1 = molecular target: T5, PAK1 (Homo sapiens, UniProt Q13153); assay: KINOMEscan scanEDGE; type: binding; conditions: 20 uM
# T5 construct: purchased Eurofins DiscoverX (KINOMEscan; SAFETYscan E/IC50 ELECT)
# T5 sequence (Q13153 whole entry): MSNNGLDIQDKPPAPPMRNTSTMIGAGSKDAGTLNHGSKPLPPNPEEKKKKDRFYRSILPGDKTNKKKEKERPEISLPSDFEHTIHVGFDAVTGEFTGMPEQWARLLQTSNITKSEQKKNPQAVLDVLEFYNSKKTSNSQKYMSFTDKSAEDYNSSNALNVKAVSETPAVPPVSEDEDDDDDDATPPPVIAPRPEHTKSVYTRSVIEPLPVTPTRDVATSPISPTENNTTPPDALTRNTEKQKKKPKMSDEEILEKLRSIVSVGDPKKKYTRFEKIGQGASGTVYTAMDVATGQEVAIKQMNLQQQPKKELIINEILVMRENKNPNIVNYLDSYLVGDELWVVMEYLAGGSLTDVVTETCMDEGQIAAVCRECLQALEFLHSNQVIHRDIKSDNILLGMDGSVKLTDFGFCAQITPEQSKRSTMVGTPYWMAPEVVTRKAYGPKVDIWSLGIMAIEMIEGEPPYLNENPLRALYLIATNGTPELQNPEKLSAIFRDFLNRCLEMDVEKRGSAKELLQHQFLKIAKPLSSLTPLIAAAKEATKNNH
# IKK-beta = molecular target: T6, IKK-beta (Homo sapiens, UniProt O14920); assay: KINOMEscan scanEDGE; type: binding; conditions: 20 uM
# T6 construct: purchased Eurofins DiscoverX (KINOMEscan; SAFETYscan E/IC50 ELECT)
# WT or mdx mice = assay: Rotarod endurance; type: in vivo, mouse; conditions: single doses up to 10 mg/kg, 4 hours after oral administration
# Protocol: (§2) Prior to in vivo assessments, mice were dosed PO after a 2-hour fast with 10 mL/Kg suspensions. Grip strength and rotarod assessments were performed masked, 4 hours after dosing using published protocols ([66], [67]). Grip strength was performed with a Columbus Instruments Rodent Force Meter. Forepaw strength represented the average of 5 trials with 30-second rest periods, normalized by BW. Rotarod endurance was performed with a Columbus Instruments RotaMax. Mice were placed on the device drum at 1 rpm, which accelerated 1 rpm every 3 seconds to 12 rpm and a maximal time of 500 seconds. This was repeated 3 times with a 3-minute rest and total time reported. Voluntary wheel running performance was assessed with a customized system. Timestamped RPMs were measured 24 hours per day by infrared sensors, and a custom software calculated distance. Whole-body EBD was visualized after intravenous administration ([35]). EBD in PBS at 10 mg/mL was sterile filtered, and 50 μL/10 g BW was injected via tail vein. After 24 hours, animals were sacrificed, skin was removed and fixed in 4% formalin for 24 hours, and photographed using a Leica/Lumix camera.
# [1] = molecular target: 78 proteins, including GPCR, ion channel, kinases, nuclear hormone receptors, and transporters; assay: SAFETYscan E/IC50 ELECT off-target panel (whole panel); conditions: read-out: IC50 in all SAFETYscan assays
# Protocol: as §1
# [2] = tested on: dystrophic golden retriever (GRMD) dogs; assay: Plasma CK activity in GRMD dogs; type: in vivo, dog; conditions: 7-month-old GRMD, 14 days oral gavage
# Protocol: Plasma from mice and dogs were analyzed for CK activity using standard protocols (Pointe Scientific, Thermo Fisher Scientific).
# Studies were performed in two phases. In the first phase, GRMD (n = 4, female, 7 months old) were dosed PO daily with vehicle for 2 weeks, followed by a suspension of EDG-5506 (3 mg/kg daily for 2 days, then 1 mg/kg daily for 2 weeks) and then with vehicle for 2 weeks. Blood was drawn at regular intervals (2–3 draws during the vehicle baseline, 5–8 draws during the dosing period, and 2 draws during the vehicle washout). In a separate dosing period, the same 4 dogs (10 months old) were administered vehicle for 14 days with regular blood draws (6–9 for each dog across the 14-day period). CK activity (Pointe Scientific, Thermo Fisher Scientific) was measured from plasma. In the second phase, the same 4 dogs (15 months old) were fitted with a collar-bound activity monitor (Fitbark 2, Fitbark Inc.) as described previously ([42]), and baseline activity was recorded for 27 days before daily oral gavage with vehicle for 22 days. Three dogs were then dosed in a similar pattern to phase 1 with EDG-5506 (2 mg/kg for 4 days and then 2 mg/kg every other day for 7 days). The fourth dog was dosed with vehicle over the same period. […] Average daily activity (“Fitbark points”) and time performing various activities (play, rest, active) were recorded.
# ERK1 = molecular target: T7, ERK1 (Homo sapiens, UniProt P27361); assay: KINOMEscan scanEDGE; type: binding; conditions: 20 uM
# T7 construct: purchased Eurofins DiscoverX (KINOMEscan; SAFETYscan E/IC50 ELECT)
# T7 sequence (P27361 whole entry): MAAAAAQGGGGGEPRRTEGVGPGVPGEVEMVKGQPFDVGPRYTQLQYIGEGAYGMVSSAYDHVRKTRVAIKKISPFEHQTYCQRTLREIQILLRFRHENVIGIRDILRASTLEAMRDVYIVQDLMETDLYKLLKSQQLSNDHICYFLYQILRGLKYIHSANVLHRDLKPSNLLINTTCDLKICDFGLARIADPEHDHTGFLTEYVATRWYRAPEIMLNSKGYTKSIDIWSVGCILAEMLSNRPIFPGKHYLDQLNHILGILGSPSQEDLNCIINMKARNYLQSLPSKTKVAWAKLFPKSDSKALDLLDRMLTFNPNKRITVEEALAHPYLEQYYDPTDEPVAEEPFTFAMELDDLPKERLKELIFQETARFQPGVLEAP
# young mdx mice = assay: 3-week dosing of young (weaning) mdx mice, soleus histology; type: in vivo, mouse; conditions: post-weaning mdx mice, 3 weeks
# Text: C57BL/6 (stock no. 000664), C57BL/10J (stock no. 000665, control for mdx experiments), C57BL/10ScSn-Dmd^mdx/J (mdx, stock no. 001801), and D2.B10 (DBA/2-congenic) Dmd^mdx (DBA/2J mdx, stock no. 013141) mice were from The Jackson Laboratory. Sprague-Dawley rats were purchased from Charles River Laboratories. For ex vivo experiments, mice were 10–16 weeks old. For in situ experiments, mice were 8–14 weeks of age. For in vivo chronic dosing studies, mdx and DBA/2J mdx were 4–5 weeks of age at study start. Dosing was via a 10 mL/kg suspension (1% methyl cellulose, 0.1% Tween 80 in water). For studies in 14-day-old preweaning mice, PO dosing was via syrup suspension (3 mg/kg/d). […]
# For sterile muscle injury, mice were anesthetized with isoflurane and 50 μL cardiotoxin (12 × 10^–6 M, 217503, Millipore) injected in the TA muscle. […] 8 μm cryosections were cut and stained with H&E. For each analysis, more than 10 slides (per condition/group) containing 6 muscle sections/sample were used, and myofibers in the injured area were counted and measured with a Mirax digital scanner and HALO software ([68]). […] Image analysis was performed using ImarisX64 software (Bitplane AG), and fiber sizing was calculated using minimal Feret’s diameter ([69]). […] Fiber type, size, and central nucleation were quantified with analysis via SMASH ([70]) and ImageJ (NIH). […]
# PIK3CA = molecular target: T8, PIK3CA (Homo sapiens, UniProt P42336); assay: KINOMEscan scanEDGE; type: binding; conditions: 20 uM
# T8 construct: purchased Eurofins DiscoverX (KINOMEscan; SAFETYscan E/IC50 ELECT)
# T8 sequence (P42336 whole entry): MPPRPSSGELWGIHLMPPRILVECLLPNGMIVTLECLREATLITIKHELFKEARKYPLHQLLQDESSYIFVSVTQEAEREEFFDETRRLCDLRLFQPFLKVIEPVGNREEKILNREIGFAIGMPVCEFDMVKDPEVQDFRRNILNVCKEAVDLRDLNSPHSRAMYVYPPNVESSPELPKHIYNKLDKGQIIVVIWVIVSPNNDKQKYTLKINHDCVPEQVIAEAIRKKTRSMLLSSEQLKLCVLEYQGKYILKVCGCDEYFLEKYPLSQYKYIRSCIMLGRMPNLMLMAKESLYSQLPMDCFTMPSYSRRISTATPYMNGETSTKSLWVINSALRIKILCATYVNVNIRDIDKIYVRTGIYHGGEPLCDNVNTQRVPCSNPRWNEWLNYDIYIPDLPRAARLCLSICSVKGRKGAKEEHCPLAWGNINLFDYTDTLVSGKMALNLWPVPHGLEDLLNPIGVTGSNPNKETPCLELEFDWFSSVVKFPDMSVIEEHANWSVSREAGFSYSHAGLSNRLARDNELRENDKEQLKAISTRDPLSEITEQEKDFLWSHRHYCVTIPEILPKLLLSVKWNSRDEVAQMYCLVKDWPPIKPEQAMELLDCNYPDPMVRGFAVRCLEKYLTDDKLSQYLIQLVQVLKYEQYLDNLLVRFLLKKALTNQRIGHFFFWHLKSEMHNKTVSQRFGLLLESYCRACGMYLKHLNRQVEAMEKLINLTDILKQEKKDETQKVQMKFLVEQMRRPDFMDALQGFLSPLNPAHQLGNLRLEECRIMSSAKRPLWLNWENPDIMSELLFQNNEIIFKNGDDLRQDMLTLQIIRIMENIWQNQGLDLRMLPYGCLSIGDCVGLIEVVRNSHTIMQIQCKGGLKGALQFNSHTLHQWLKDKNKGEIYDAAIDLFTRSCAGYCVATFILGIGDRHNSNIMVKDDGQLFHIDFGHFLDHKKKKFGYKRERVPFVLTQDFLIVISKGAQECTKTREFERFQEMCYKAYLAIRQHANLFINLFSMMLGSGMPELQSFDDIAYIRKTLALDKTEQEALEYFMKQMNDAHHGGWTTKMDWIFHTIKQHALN
# mdx mice = assay: Evans blue dye muscle uptake; type: in vivo, mouse; conditions: three-week treatment, nonexercised
# Protocol: as §2
# FGFR3 = molecular target: T9, FGFR3 (Homo sapiens, UniProt P22607); assay: KINOMEscan scanEDGE; type: binding; conditions: 20 uM
# T9 construct: purchased Eurofins DiscoverX (KINOMEscan; SAFETYscan E/IC50 ELECT)
# T9 sequence (P22607 23-806): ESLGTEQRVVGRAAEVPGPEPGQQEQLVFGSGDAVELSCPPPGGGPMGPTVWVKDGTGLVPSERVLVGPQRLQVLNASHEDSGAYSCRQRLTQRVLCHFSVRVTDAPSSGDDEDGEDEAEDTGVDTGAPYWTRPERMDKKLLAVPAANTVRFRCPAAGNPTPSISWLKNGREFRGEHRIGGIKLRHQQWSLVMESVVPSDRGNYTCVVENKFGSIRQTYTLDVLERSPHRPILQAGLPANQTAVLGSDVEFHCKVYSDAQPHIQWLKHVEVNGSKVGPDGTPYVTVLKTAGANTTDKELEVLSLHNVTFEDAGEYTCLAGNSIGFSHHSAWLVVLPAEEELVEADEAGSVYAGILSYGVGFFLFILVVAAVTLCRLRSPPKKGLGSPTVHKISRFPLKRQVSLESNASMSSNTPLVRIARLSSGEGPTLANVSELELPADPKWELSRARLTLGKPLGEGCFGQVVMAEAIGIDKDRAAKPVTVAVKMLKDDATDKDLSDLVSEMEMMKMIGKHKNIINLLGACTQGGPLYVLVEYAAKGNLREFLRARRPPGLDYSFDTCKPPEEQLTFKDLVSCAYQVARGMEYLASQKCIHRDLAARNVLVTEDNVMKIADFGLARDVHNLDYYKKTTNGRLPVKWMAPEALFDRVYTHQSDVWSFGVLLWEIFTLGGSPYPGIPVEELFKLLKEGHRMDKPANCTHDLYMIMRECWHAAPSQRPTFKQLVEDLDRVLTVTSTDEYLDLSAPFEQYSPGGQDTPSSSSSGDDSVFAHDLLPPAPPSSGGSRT
smiles,measurement,setting,value
O=c1ccc(-c2cnc(OCC(F)(F)F)nc2)nn1Cc1cncc(F)c1 [EDG-5506],Emax,INSR,26.9%
same,Emax,LCK,0%
same,Emax,ROCK1,24.6%
same,Emax,VEGFR2,18.1%
same,"binding, % of control",PAK1,100 % of control
same,"binding, % of control",IKK-beta,94 % of control
same,rotarod endurance,WT or mdx mice,no effect
same,IC50,[1],> 10 µM
same,decrease in CK,[2],more than 50%
same,"binding, % of control",ERK1,100 % of control
same,central nucleation in soleus,young mdx mice,decreased central nucleation
same,"binding, % of control",PIK3CA,100 % of control
same,Evans blue dye-positive fibers,mdx mice,reduced blue fibers close to the level seen in WT mice
same,"binding, % of control",FGFR3,96 % of control

# Reference: publication PMC10178848, “Modulating fast skeletal muscle contraction protects skeletal muscle in animal models of Duchenne muscular dystrophy” (The Journal of Clinical Investigation, 2023)
